Experimental data taken from paper PMC6000956, “Immunomodulatory activities of pixatimod: emerging nonclinical and clinical data, and its potential utility in combination with PD-1 inhibitors” (Journal for Immunotherapy of Cancer, 2018).
Like-named read-outs stand apart in the source and are kept apart here.

Key:
Type in all cases: in vivo
rats = experiment: Repeated weekly SC toxicology in rats (organ weights); settings: weekly SC x5, 3, 12 and 48 mg/kg
Experimental: (§1) Supplementary file 40425_2018_363_MOESM2_ESM.pptx: Additional file 2: Effect of pixatimod dosing on selected organ weights in beagle dogs (IV and SC) and rats (SC). Repeated weekly IV exposure (× 5) of pixatimod increases the relative weights of liver (A) and kidney (B) but not thymus (C) nor spleen (D) in beagle dogs. […] Data shown is for combined sexes. […] Study size, n = 15 for control and 48 mg/kg groups and n = 10 for 3 and 12 mg/kg groups. […] Study size, n = 5 for control and 20 mg/kg groups and n = 3 for 2.5 and 7.5 mg/kg groups. *P < 0.05, **P < 0.01, ***P < 0.001 versus control (Kruskal-Wallis test for the dog study, ANOVA followed by Dunnett’s comparison for the rat study). (PPTX 65 kb)

[1] = Plasma exposure in the Phase Ia monotherapy study (PG545102), IV infusion; settings: human
Experimental: (§2) A 1 month toxicology study of pixatimod in beagle dogs was performed under OECD Good Laboratory Practice (GLP) to assess the toxicity and toxicokinetic profile of pixatimod with 5 intravenous, short term (approximately 1 h) infusions at three defined dose levels of 2.5, 7.5 and 20 mg/kg weekly over 29 days. Blood samples were collected for toxicokinetic investigation to provide information on the systemic exposure. Parameters monitored included mortality and morbidity, clinical signs, food consumption, body weight and body temperature, ophthalmoscopy and electrocardiographic measurements. Laboratory investigations were performed using haematology (ADVIA 120), coagulation (AMAX Density Plus Coagulometer), clinical chemistry (VITROS 950) and urinalysis (URYXXON 300). At the end of the treatment, all animals were euthanized and subjected to a complete necropsy with selected organs weighed and followed by a detailed histopathology evaluation. Bone marrow smears from the femur and sternum were prepared at necropsy, fixed and stained with May-Grünwald and Giemsa stain for analysis. Blood samples obtained during the Phase Ia monotherapy study (PG545102) were collected weekly and the parameters reported herein were analysed by local hospital laboratories.
Plasma samples were analysed using a LC-MS/MS method as previously described. Pharmacokinetic parameters in animal studies were determined by non-compartmental analyses (NCA) of the mean plasma pixatimod concentration vs time profiles for each dose using the linear trapezoidal method in WinNonlin 5.2.1. For comparison with previous animal studies, exposure data (AUC0-last) in clinical samples were derived using individual subject NCA type exposure parameters from the original plasma concentration data using R (64-bit) Version 3.0.1.

beagle dogs [2] = experiment: 1 month GLP toxicology study, weekly IV infusion
Experimental: as §2
In the 4T1.2 model, the percentage tumor growth inhibition was determined according to the following formula: 100 × (1-ΔT/ ΔC) where ΔC and ΔT were calculated by subtracting the mean tumor volume in each group on day 1 of treatment from the mean tumor volume on the day of analysis. Statistical analysis was performed using GraphPad Prism, v 6.0 (GraphPad, La Jolla, CA). An ANOVA analysis was performed followed by Dunnett’s post hoc test to compare the tumor growth in the treated groups to the vehicle control. In the dog toxicology study, the analysis was performed using non-parametric Kruskal-Wallis test. The frequency of clinical observations, and necropsy and histopathology findings, was calculated as applicable. For all statistical analyses, statistically significance differences between control and treatment groups was signified by *P < 0.05, **P < 0.01, ***P < 0.001, ****P < 0.0001 versus vehicle control.

beagle dogs [3] = experiment: Previous repeated weekly SC toxicology study in beagle dogs (organ weights); settings: weekly SC x5, 2.5, 7.5 and 20 mg/kg
Experimental: as §1

[4] = High Dose (20 mg/kg), 6 animals examined
[5] = Low Dose (2.5 mg/kg), 6 animals examined
[6] = Mid Dose (7.5 mg/kg), 6 animals examined

For `CC(C)CCC[C@@H](C)[C@H]1CC[C@H]2[C@@H]3CC[C@H]4C[C@@H](O[C@@H]5O[C@H](COS(=O)(=O)O)[C@@H](O[C@H]6O[C@H](COS(=O)(=O)O)[C@@H](O[C@H]7O[C@H](COS(=O)(=O)O)[C@@H](O[C@H]8O[C@H](COS(=O)(=O)O)[C@@H](OS(=O)(=O)O)[C@H](OS(=O)(=O)O)[C@H]8OS(=O)(=O)O)[C@H](OS(=O)(=O)O)[C@H]7OS(=O)(=O)O)[C@H](OS(=O)(=O)O)[C@H]6OS(=O)(=O)O)[C@H](OS(=O)(=O)O)[C@H]5OS(=O)(=O)O)CC[C@]4(C)[C@H]3CC[C@]12C` [pixatimod], the Relative spleen weight (rats) was “increased in a dose-dependent manner”, the AUC(0-t) ([1]; 25 mg, 25 mg weekly IV, read-out: AUC0-last Week 1) was 465 µg·h/mL and the AUC(0-t) ([1]; 25 mg, 25 mg weekly IV, read-out: AUC0-last Week 4) was 610 µg·h/mL. The AUC(0-t) ([1]; 50 mg, 50 mg weekly IV, read-out: AUC0-last Week 1) was 709 µg·h/mL, the AUC(0-t) ([1]; 50 mg, 50 mg weekly IV, read-out: AUC0-last Week 4) was 1690 µg·h/mL and the AUC(0-t) ([1]; 100 mg, 100 mg weekly IV, read-out: AUC0-last Week 1) was 1210 µg·h/mL. The AUC(0-t) ([1]; 100 mg, 100 mg weekly IV, read-out: AUC0-last Week 4) was 2380 µg·h/mL, the AUC(0-t) ([1]; 150 mg, 150 mg weekly IV, read-out: AUC0-last Week 1) was 1440 µg·h/mL and the AUC(0-t) ([1]; 150 mg, 150 mg weekly IV, read-out: AUC0-last Week 4) was 2780 µg·h/mL. For the same molecule, the mortality (beagle dogs [2]; 2.5, 7.5 and 20 mg/kg weekly IV over 29 days) was “no mortality”, the “Kidney: Cell infiltrate, mixed, perivascular, animals affected” value (from here on “Kidney: Cell infiltrate … animals affected”) (beagle dogs [2]; [4]) was 6 and the “Kidney: Cell infiltrate, mixed, perivascular, mild” value (beagle dogs [2]; [4]) was 4. For the same molecule, the “Kidney: Cell infiltrate, mixed, perivascular, minimal” value (shortened to “Kidney: Cell infiltrate … minimal”) (beagle dogs [2]; [4]) was 1, the “Kidney: Cell infiltrate, mixed, perivascular, moderate” value (beagle dogs [2]; [4]) was 1 and the “Kidney: Dilatation tubular, animals affected” value (beagle dogs [2]; [4]) was 6. For the same molecule, the “Kidney: Dilatation tubular, by grade (minimal or mild, not resolvable)” value (beagle dogs [2]; [4]) was 6, the “Kidney: Sclerosis glomerular, animals affected” value (beagle dogs [2]; [4]) was 3 and the “Kidney: Sclerosis glomerular, mild” value (beagle dogs [2]; [4]) was 1. For the same molecule, the “Kidney: Sclerosis glomerular, minimal” value (beagle dogs [2]; [4]) was 2, the “Kidney: Vacuolation glomerular, animals affected” value (beagle dogs [2]; [4]) was 4 and the “Kidney: Vacuolation glomerular, mild” value (beagle dogs [2]; [4]) was 4. The “Liver: Cell infiltrate, mixed, diffuse, animals affected” value (shortened to “Liver … diffuse, animals affected”) (beagle dogs [2]; [4]) was 2, the “Liver: Cell infiltrate, mixed, diffuse, mild” value (beagle dogs [2]; [4]) was 2 and the “Liver: Cell infiltrate, mononuclear, multifocal, animals affected” value (“Liver: Cell infiltrate, mononuclear” for short) (beagle dogs [2]; [4]) was 0. The “Liver: Hypertrophy hepatocellular, animals affected” value (beagle dogs [2]; [4]) was 6, the “Liver: Hypertrophy hepatocellular, mild” value (beagle dogs [2]; [4]) was 5 and the “Liver: Hypertrophy hepatocellular, minimal” value (beagle dogs [2]; [4]) was 1. The “Liver: Hypertrophy, Kupffer cells, animals affected” value (beagle dogs [2]; [4]) was 6, the “Liver: Hypertrophy, Kupffer cells, mild” value (beagle dogs [2]; [4]) was 4 and the “Liver: Hypertrophy, Kupffer cells, minimal” value (beagle dogs [2]; [4]) was 2. For the same molecule, the “Spleen: Cell infiltrate, mixed cellular, diffuse (minimal), animals affected” value (“Spleen: Cell infiltrate, mixed cellular” below) (beagle dogs [2]; [4]) was 4, the “Thymus: Lymphoid atrophy, animals affected” value (beagle dogs [2]; [4]) was 2 and the “Thymus: Lymphoid atrophy, mild” value (beagle dogs [2]; [4]) was 1. The “Thymus: Lymphoid atrophy, minimal” value (beagle dogs [2]; [4]) was 1, the “Kidney: Cell infiltrate … animals affected” value (beagle dogs [2]; [5]) was 1 and the “Kidney: Cell infiltrate … minimal” value (beagle dogs [2]; [5]) was 1. The “Kidney: Dilatation tubular, animals affected” value (beagle dogs [2]; [5]) was 4, the “Kidney: Dilatation tubular, minimal” value (beagle dogs [2]; [5]) was 4 and the “Kidney: Sclerosis glomerular, animals affected” value (beagle dogs [2]; [5]) was 0. For the same molecule, the “Kidney: Vacuolation glomerular, animals affected” value (beagle dogs [2]; [5]) was 0, the “Liver … diffuse, animals affected” value (beagle dogs [2]; [5]) was 0 and the “Liver: Cell infiltrate, mononuclear” value (beagle dogs [2]; [5]) was 0. The “Liver: Hypertrophy hepatocellular, animals affected” value (beagle dogs [2]; [5]) was 5, the “Liver: Hypertrophy hepatocellular, mild” value (beagle dogs [2]; [5]) was 3 and the “Liver: Hypertrophy hepatocellular, minimal” value (beagle dogs [2]; [5]) was 2. The “Liver: Hypertrophy, Kupffer cells, animals affected” value (beagle dogs [2]; [5]) was 2, the “Liver: Hypertrophy, Kupffer cells, mild” value (beagle dogs [2]; [5]) was 1 and the “Liver: Hypertrophy, Kupffer cells, minimal” value (beagle dogs [2]; [5]) was 1. For the same molecule, the “Spleen: Cell infiltrate, mixed cellular” value (beagle dogs [2]; [5]) was 0, the “Kidney: Cell infiltrate … animals affected” value (beagle dogs [2]; [6]) was 5 and the “Kidney: Cell infiltrate, mixed, perivascular, mild” value (beagle dogs [2]; [6]) was 1. For the same molecule, the “Kidney: Cell infiltrate … minimal” value (beagle dogs [2]; [6]) was 4, the “Kidney: Dilatation tubular, animals affected” value (beagle dogs [2]; [6]) was 6 and the “Kidney: Dilatation tubular, mild” value (beagle dogs [2]; [6]) was 1. The “Kidney: Dilatation tubular, minimal” value (beagle dogs [2]; [6]) was 5, the “Kidney: Sclerosis glomerular, animals affected” value (beagle dogs [2]; [6]) was 0 and the “Kidney: Vacuolation glomerular, animals affected” value (beagle dogs [2]; [6]) was 0. The “Liver … diffuse, animals affected” value (beagle dogs [2]; [6]) was 0, the “Liver: Cell infiltrate, mononuclear” value (beagle dogs [2]; [6]) was 0 and the “Liver: Hypertrophy hepatocellular, animals affected” value (beagle dogs [2]; [6]) was 6. For the same molecule, the “Liver: Hypertrophy hepatocellular, mild” value (beagle dogs [2]; [6]) was 5, the “Liver: Hypertrophy hepatocellular, minimal” value (beagle dogs [2]; [6]) was 1 and the “Liver: Hypertrophy, Kupffer cells, animals affected” value (beagle dogs [2]; [6]) was 6. For the same molecule, the “Liver: Hypertrophy, Kupffer cells, mild” value (beagle dogs [2]; [6]) was 2, the “Liver: Hypertrophy, Kupffer cells, minimal” value (beagle dogs [2]; [6]) was 4 and the “Spleen: Cell infiltrate, mixed cellular” value (beagle dogs [2]; [6]) was 2. For the same molecule, the AST (beagle dogs [2]; after 5 weekly IV doses) was “significant changes”, the “large unstained cells (LUCs)” value (beagle dogs [2]; blood, following exposure) was “significant increases” and the bone marrow smears (beagle dogs [2]; femur and sternum at necropsy) was “No treatment-related changes”. For the same molecule, the body temperature (beagle dogs [2]; following the first dose, dissipated upon repeat dosing by day 30) was “significant elevations”, the “absolute WBC counts and main subsets (lymphocytes, neutrophils and monocytes)” value (beagle dogs [2]; weekly IV dosing) was “remained within normal ranges” and the “relative weight of kidneys” value (beagle dogs [2]; weekly IV x5) was “significantly increased”. The “relative weight of liver” value (beagle dogs [2]; weekly IV x5) was “significantly increased”, the spleen weight (beagle dogs [2]; weekly IV x5) was “no effect” and the thymus weights (beagle dogs [2]; weekly IV x5) was “modest but dose-dependent decreases”. For the same molecule, the spleen weight (beagle dogs [3]) was “no significant effect”.
